# Assay results as given in paper PMC6733874, “Zebrafish behavioural profiling identifies GABA and serotonin receptor ligands related to sedation and paradoxical excitation” (Nature Communications, 2019).
# Entries after “also recorded” stand apart in the source; their conditions may differ. Like-named read-outs stand apart in the source and are kept apart here.
# Tests used:
# [1] = test system: human GABAARs (α1β2 and α1β2γ2); assay type: cell-based; settings: for FLIPR Results: Positive/Negative
# Text: To determine if these compounds targeted human GABAARs, we tested them in a fluorescent imaging plate reader (FLIPR) assay on HEK293 cells transfected with α1β2 and α1β2γ2 human GABAAR subtypes. […]. […] While some of the compounds appeared to function in this assay as negative allosteric modulators (NAMs), reductions in fluorescence were likely due to toxicity-induced cell loss (Fig. 2f, Supplementary Table 5).
# We used the FLIPR system (Molecular Devices) to quantify GABA-evoked activity of human GABAARs. We chose a membrane potential dye (Molecular Devices) to measure changes in membrane potentials and stably transfected HEK293 cells that expressed α1, β2 and γ2. Since we observed an increase in GABA-evoked responses when transfected with γ2 transiently, we describe the cells as having a low level of γ-subunit expression, indicating heterogeneity of GABAAR compositions in the cell (α1β2 or α1β2γ2). To assay for direct agonists, fluorescence was subtracted pre- and post compound addition. To assay for PAMs, cells were treated with compound at 20 uM and then with 5 uM GABA.
# [2] = test system: zebrafish; assay type: in vivo; settings: for rescue of behavioral phenotypes by pretreatment with the GABAAR antagonist PTX: violet light and eASR phenotypes, in words
# [3] = compound at 20 uM then 5 uM GABA, DMSO = 1
# [4] = larvae, low-volume acoustic stimulus
# [5] = compound at 20 uM then 5 uM GABA
SMILES,"Ave Norm FLIPR Score [1, 3]","FLIPR Results [1, 5]",also measured
"C[C@]12CC[C@H]3[C@@H](CCC4=CC(=O)CC[C@@]43C)[C@@H]1CC[C@@H]2C(=O)CO [DOC, 11-deoxycorticosterone]",-4.308,,"enhanced acoustic startle response (eASR) phenotype, in words [2, 4]: most potent compounds tested"
Nc1ccc(Oc2ccc(Cl)c3cccnc23)c(Cl)c1 [compound 5846886],-5.255,,
CC(=O)/N=C(/Nc1cccc(C(F)(F)F)c1)Nc1nc(C)cc(C)n1 [compound 5869570],15.04,Positive,
COc1ccccc1N1CCN(C(=O)c2ccc(C(=O)c3c(C)cc(C)cc3C)cc2)CC1 [compound 6013263],1.035,,rescue of behavioral phenotypes by pretreatment with the GABAAR antagonist PTX [2]: partially rescued
CCOc1ccccc1NS(=O)(=O)c1ccc(OC)c(Br)c1 [compound 6030006],3.046,,rescue of behavioral phenotypes by pretreatment with the GABAAR antagonist PTX [2]: partially rescued
O=S(=O)(Nc1ccc(OCc2ccccc2)cc1)c1ccc2c(c1)OCCO2 [compound 6163607],-5.679,,
COc1ccc(S(=O)(=O)N2CCC(C)CC2)cc1Br [compound 6366118],14.5,Positive,
COc1cc(OC)cc(C(=O)Nc2ccc(Cl)cc2C(F)(F)F)c1 [compound 6376886],32.44,Positive,
CCCN(CCC)S(=O)(=O)c1ccc(Cl)c(Cl)c1OC [compound 6474599],52.02,Positive,
COc1ccccc1-c1coc2cc(OC(=O)c3cccs3)ccc2c1=O [compound 6645327],-4.734,,
CC(C)CC(=O)NC(S)=NCc1ccccc1 [compound 6993015],23.93,Positive,
CCc1cc2c(=O)c(-c3ccccc3Cl)coc2cc1O [compound 7014338],-6.27,,
O=C(Cc1ccc(Cl)cc1)Nc1cccc(C(=O)c2ccccc2)c1 [compound 7100598],7.736,Positive,
Nc1ccc(OC(F)(F)F)cc1C(=O)c1ccccc1 [compound 7113584],-2.455,,
Cc1cc(C)n2c(SCc3ccc(C(=O)c4ccccc4)cc3)nnc2n1 [compound 7166683],-1.302,,
Cc1cccc(OCCn2c(NC(=O)c3ccco3)nc3ccccc32)c1 [compound 7273455],7.892,Positive,
CCOC(=O)c1c(NC(=O)C2CCCC2)sc2c1CCCC2 [compound 7282929],17.15,Positive,
CN1C(=O)CN=C(c2ccccc2)c2cc(Cl)ccc21 [diazepam],,,"Ave Norm FLIPR Score [1]: -10.9; enhanced acoustic startle response (eASR) phenotype, in words ([2]; zebrafish, in vivo): produced eASRs that were relatively weak and inconsistent; also recorded: produced intermediate eASR phenotypes"
CC(=O)[C@H]1CC[C@H]2[C@@H]3CCC4=CC(=O)CC[C@]4(C)[C@H]3CC[C@]12C [progesterone],17.8,Positive,"enhanced acoustic startle response (eASR) phenotype, in words [2, 4]: most potent compounds tested"
CCCC(C)C1(CC)C(=O)NC(=S)NC1=O (stereo not shown) [thiopental],,Positive,
CCCCNc1c(C(=O)OCC)c(C)nc2c1cnn2CC [tracazolate],50.14,Positive,"GABAAR PAM activity in FLIPR, in words ([1]; in the presence of GABA): increased fluorescence in the presence of GABA"
